# From ChEMBL document CHEMBL1201862, “PubChem BioAssay data set” (2004)
# “And” between values parts separate entries of the source, which are not always exact repeats. Identical values can stand only once.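 Values below derive from 48-hour exposures of cells grown in 96-well plates, with endpoints linearly interpolated between the two concentrations bracketing the appropriate inhibition level. At the GI50, growth is halved.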 The source made the active and inactive calls. No stated cut-off is given here; in the data, active = GI50 up to about 1.1 µM and inactive = higher.
# Key:
# Assay in all cases: NCI anticancer screen, dose series, 48 h
# UACC-257 = system: UACC-257
# OVCAR-5 = system: OVCAR-5
# CAKI-1 = system: CAKI-1
# A549 = system: A549
# RPMI-8226 = system: RPMI-8226
# A498 = system: A498
# TK-10 = system: TK-10
# SK-OV-3 = system: SK-OV-3
# MDA-N = system: MDA-N
# HOP-92 = system: HOP-92
# U-251 = system: U-251
# HCT-15 = system: HCT-15
# HL-60 = system: HL-60
# SF-539 = system: SF-539
# IGROV-1 = system: IGROV-1
# RXF 393 = system: RXF 393
# MDA-MB-231 = system: MDA-MB-231
# BT-549 = system: BT-549
Structure (SMILES),GI50 (UACC-257),GI50 (OVCAR-5),GI50 (CAKI-1),GI50 (A549),GI50 (RPMI-8226),GI50 (A498),GI50 (TK-10),GI50 (SK-OV-3),GI50 (MDA-N),GI50 (HOP-92),GI50 (U-251),GI50 (HCT-15),GI50 (HL-60),GI50 (SF-539),GI50 (IGROV-1),GI50 (RXF 393),GI50 (MDA-MB-231),GI50 (BT-549)
COc1cc(C(=O)Oc2c(C#N)sc3c2c(=O)n(-c2ccccc2)c(=S)n3-c2ccccc2)cc(OC)c1OC,35.2 µM (inactive),17.6 µM (inactive),21.2 µM (inactive),21.5 µM (inactive),9.08 µM (inactive),4.1 µM (inactive),27.7 µM (inactive),22 µM (inactive),20.2 µM (inactive),14.6 µM (inactive),12.5 µM (inactive),18.9 µM,18.8 µM (inactive),4.71 µM (inactive),19.1 µM (inactive),8.99 µM (inactive),20.8 µM (inactive),
CC1(C)C(O)C[C@]23CCC[C@](C)(C[C@@H](O)C12)C3 (stereo not given in full),> 100 µM (inactive),> 100 µM (inactive),> 100 µM (inactive),38.2 µM (inactive),> 100 µM (inactive),,> 100 µM (inactive),> 100 µM (inactive),,> 100 µM (inactive),> 100 µM (inactive),> 100 µM,> 100 µM (inactive),,> 100 µM (inactive),,,> 100 µM (inactive)
Cc1cc2ncn(CC(=O)O)c2cc1C,> 100 µM (inactive),> 100 µM (inactive),> 100 µM (inactive),> 100 µM (inactive),> 100 µM (inactive),> 100 µM (inactive),> 100 µM (inactive),> 100 µM (inactive),,> 100 µM (inactive),> 100 µM (inactive),> 100 µM,> 100 µM (inactive),> 100 µM (inactive),> 100 µM (inactive),> 100 µM (inactive),> 100 µM (inactive),> 100 µM (inactive)
COc1ccccc1/C=C(/C)[N+](=O)[O-],1.74 µM (inactive) and 1.77 µM (inactive),,,2.33 µM (inactive) and 2.98 µM (inactive),,7.13 µM (inactive) and 5.14 µM (inactive),2.06 µM (inactive) and 4.06 µM (inactive),,,2.21 µM (inactive),1.68 µM (inactive) and 1.79 µM (inactive),1.96 µM and 2.01 µM,1.88 µM (inactive) and 1.21 µM (inactive),1.77 µM (inactive) and 2.28 µM (inactive),2.17 µM (inactive) and 1.6 µM (inactive),,3.43 µM (inactive) and 4.86 µM (inactive),
CCc1ccc2oc(-c3cc(O)c(-c4nc5cc(CC)ccc5o4)cc3O)nc2c1,,> 100 µM (inactive),,> 100 µM (inactive),> 100 µM (inactive),> 100 µM (inactive),> 100 µM (inactive),> 100 µM (inactive),> 100 µM (inactive),> 100 µM (inactive),> 100 µM (inactive),> 100 µM,> 100 µM (inactive),> 100 µM (inactive),> 100 µM (inactive),,> 100 µM (inactive),
COC(=O)c1c(C(=O)OC)c2ccccn2c1-c1cc(C)cc2c1C(=O)C=CC2=O,3.43 µM (inactive),12.1 µM (inactive),5.08 µM (inactive),16.3 µM (inactive),4.11 µM (inactive),12.8 µM (inactive),14.1 µM (inactive),> 10 µM (inactive),10.5 µM (inactive),,,10.6 µM,2.24 µM (inactive),11 µM (inactive),12.8 µM (inactive),14.1 µM (inactive),10.4 µM (inactive),
COC(=O)c1cc2c(c3c1CC(Cc1ccccc1)C3=O)CCC2 (stereo not given),> 100 µM (inactive),> 100 µM (inactive),,53.6 µM (inactive),59.8 µM (inactive),> 100 µM (inactive),> 100 µM (inactive),80.5 µM (inactive),> 100 µM (inactive),25.1 µM (inactive),62.8 µM (inactive),35 µM,> 100 µM (inactive),> 100 µM (inactive),73.3 µM (inactive),90.2 µM (inactive),62.2 µM (inactive),
NC(=O)C(=O)C(c1ccccc1)S(=O)(=O)Cc1ccccc1 (stereo not given),> 100 µM (inactive),> 100 µM (inactive),> 100 µM (inactive),> 100 µM (inactive),> 100 µM (inactive),,> 100 µM (inactive),> 100 µM (inactive),> 100 µM (inactive),> 100 µM (inactive),> 100 µM (inactive),> 100 µM,,> 100 µM (inactive),> 100 µM (inactive),> 100 µM (inactive),> 100 µM (inactive),> 100 µM (inactive)
Cc1cccc2c1CC1(C2)Cc2c(C)cccc2C1=O (stereo not given),23 µM (inactive),28.7 µM (inactive),10.3 µM (inactive),22.4 µM (inactive),14.8 µM (inactive),32.1 µM (inactive),23.6 µM (inactive),29.8 µM (inactive),26.9 µM (inactive),16.6 µM (inactive),23.8 µM (inactive),29 µM,26.7 µM (inactive),25.9 µM (inactive),30.4 µM (inactive),15.6 µM (inactive),23.6 µM (inactive),
CS(=O)(=O)c1nc(-c2cc3c(c(S(C)(=O)=O)n2)CCC3)cc2c1CCCC2,> 100 µM (inactive),> 100 µM (inactive),17 µM (inactive),> 100 µM (inactive),> 100 µM (inactive),,64.9 µM (inactive),24.4 µM (inactive),> 100 µM (inactive),,27.1 µM (inactive),> 100 µM,> 100 µM (inactive),49.3 µM (inactive),18.3 µM (inactive),15.6 µM (inactive),38.9 µM (inactive),32.1 µM (inactive)
C[n+]1c2ccccc2c(C(=O)Nc2ccc(S(=O)(=O)Nc3ccnn3-c3ccccc3)cc2)c2ccccc21,> 100 µM (inactive),> 100 µM (inactive),> 100 µM (inactive),> 100 µM (inactive),> 100 µM (inactive),,> 100 µM (inactive),> 100 µM (inactive),> 100 µM (inactive),,> 100 µM (inactive),> 100 µM,,> 100 µM (inactive),> 100 µM (inactive),,> 100 µM (inactive),> 100 µM (inactive)
CC(C)(C)C1=C(Br)C(F)(C(C)(C)C)OP1(=O)c1ccccc1 (stereo not given),16.7 µM (inactive),20.2 µM (inactive),13 µM (inactive),19.3 µM (inactive),< 0.01 µM (active),24.8 µM (inactive),18.8 µM (inactive),18 µM (inactive),20 µM (inactive),18.7 µM (inactive),17.5 µM (inactive),19.5 µM,2.79 µM (inactive),19.1 µM (inactive),16 µM (inactive),11.1 µM (inactive),,
COC(=O)[C@H](Cc1c[nH]c2ccccc12)NP(=O)(O)OC[C@H]1O[C@@H](n2cc(C)c(=O)[nH]c2=O)C[C@@H]1N=[N+]=[N-],> 100 µM (inactive),> 100 µM (inactive),> 100 µM (inactive),> 100 µM (inactive),> 100 µM (inactive),,> 100 µM (inactive),> 100 µM (inactive),> 100 µM (inactive),> 100 µM (inactive),> 100 µM (inactive),> 100 µM,> 100 µM (inactive),,> 100 µM (inactive),> 100 µM (inactive),> 100 µM (inactive),> 100 µM (inactive)
CCOC(=O)C(NC(=O)c1cccc(Cl)c1)(Nc1cccc(C)c1)C(F)(F)F (stereo not given),25.7 µM (inactive),,20.7 µM (inactive),32 µM (inactive),18.3 µM (inactive),,29.8 µM (inactive),,17.5 µM (inactive),15 µM (inactive),23.8 µM (inactive),16.7 µM,38.5 µM (inactive),17.9 µM (inactive),12.8 µM (inactive),13 µM (inactive),19.4 µM (inactive),13 µM (inactive)
CC(=O)O[C@H]1C(=O)[C@@]2(C)C(C(OC(=O)c3ccccc3)[C@]3(O)CC(OC(=O)C(O)C(NC(=O)c4cccc(Cl)c4)c4ccccc4)C(C)=C1C3(C)C)[C@]1(OC(C)=O)CO[C@@H]1C[C@@H]2O (stereo not given in full),2.09 µM (inactive),1.1 µM (active),6.64 µM (inactive),0.693 µM (active),0.405 µM (active),,2.51 µM (inactive),3.67 µM (inactive),0.0914 µM (active),> 10 µM (inactive),1.25 µM (inactive),2.62 µM,0.148 µM (active),0.353 µM (active),0.624 µM (active),,1.73 µM (inactive),6.58 µM (inactive)
COc1ccc(NC(=S)c2ccoc2C)cc1CC(=O)OC(C)C,33.4 µM (inactive),> 100 µM (inactive),29.2 µM (inactive),26.4 µM (inactive),50.8 µM (inactive),,33.3 µM (inactive),54 µM (inactive),31 µM (inactive),20.6 µM (inactive),67 µM (inactive),55.2 µM,22.1 µM (inactive),37.3 µM (inactive),36 µM (inactive),,81.5 µM (inactive),> 10 µM (inactive)
c1ccc(-c2cc(-c3ccccc3)nc(-c3ccncc3)c2)cc1,99.8 µM (inactive),> 100 µM (inactive),> 100 µM (inactive),> 100 µM (inactive),> 100 µM (inactive),,40.4 µM (inactive),> 100 µM (inactive),> 100 µM (inactive),,37.6 µM (inactive),> 100 µM,> 100 µM (inactive),,25.9 µM (inactive),44.6 µM (inactive),97.5 µM (inactive),> 100 µM (inactive)
O=P1(c2ccccc2)c2ccccc2CCc2ccccc21,> 100 µM (inactive),,34.2 µM (inactive),86.5 µM (inactive),50.6 µM (inactive),,> 100 µM (inactive),58.2 µM (inactive),38.7 µM (inactive),35.6 µM (inactive),,68.9 µM,16.6 µM (inactive),> 100 µM (inactive),> 100 µM (inactive),44.4 µM (inactive),80.7 µM (inactive),99.5 µM (inactive)
